Reference: US8586551B2, “18-membered macrocycles and analogs thereof” (Optimer Pharmaceuticals, Inc., priority 2005, dated 2013)
≈ marks a conversion by molar mass, not a printed value. Where two headings read alike, the source gives them in different places.

System: C. difficile clinical isolates
Experiment: MIC via agar dilution versus 110 clinical isolates of C. difficile
Format: cell-based

With CCc1c(Cl)c(O)c(Cl)c(O)c1C(=O)O[C@H]1[C@H](O)[C@H](OC)[C@H](OCC2=CC=CC[C@H](O)C(C)=C[C@H](CC)[C@@H](O[C@@H]3OC(C)(C)[C@@H](OC(=O)C(C)C)[C@H](O)[C@@H]3O)C(C)=CC(C)=CC[C@@H]([C@@H](C)O)OC2=O)O[C@@H]1C [R-Tiacumicin B, 3-[[[6-Deoxy-4-O-(3,5-dichloro-2-ethyl-4,6-dihydroxybenzoyl)-2-O-methyl-β-D-mannopyranosyl]oxy]-methyl]-12(R)-[[6-deoxy-5-C-methyl-4-O-(2-methyl-1-oxopropyl)-β-D-lyxo-hexopyranosyl]oxy]-11(S)-ethyl-8(S)-hydroxy-18(S)-(1(R)-hydroxyethyl)-9,13,15-trimethyloxacyclooctadeca-3,5,9,13,15-pentaene-2-one] the MIC (Clostridioides difficile) was 0.125 µg/mL (≈ 0.118 µM), the MIC (Clostridioides difficile, isolate 61 5930, read-out: MIC) was 0.03 µg/mL (≈ 0.0284 µM) and the MIC (Clostridioides difficile, isolate 65 5967, read-out: MIC) was 0.06 µg/mL (≈ 0.0567 µM). The MIC (Clostridioides difficile, isolate 68 6368, read-out: MIC) was 0.03 µg/mL (≈ 0.0284 µM), the MIC (Clostridioides difficile, isolate 77 6390, read-out: MIC) was 0.06 µg/mL (≈ 0.0567 µM) and the MIC (Clostridioides difficile, isolate 82 6329, read-out: MIC) was 0.06 µg/mL (≈ 0.0567 µM). For the same compound, the MIC (Clostridioides difficile, isolate 83 6330, read-out: MIC) was 0.06 µg/mL (≈ 0.0567 µM), the MIC (Clostridioides difficile, isolate 85 6332, read-out: MIC) was 0.06 µg/mL (≈ 0.0567 µM) and the MIC (Clostridioides difficile, isolate 86 6333, read-out: MIC) was 0.03 µg/mL (≈ 0.0284 µM). It also gave an MIC (Clostridioides difficile, isolate 96 6348, read-out: MIC) of 0.06 µg/mL (≈ 0.0567 µM), an MIC (Clostridioides difficile, isolate 103 6068, read-out: MIC) of 0.06 µg/mL (≈ 0.0567 µM) and an MIC (Clostridioides difficile, isolate 104 6060, read-out: MIC) of 0.03 µg/mL (≈ 0.0284 µM). The MIC (Clostridioides difficile, isolate 105 6071, read-out: MIC) was 0.03 µg/mL (≈ 0.0284 µM), the MIC (Clostridioides difficile, isolate 106 6078, read-out: MIC) was 0.03 µg/mL (≈ 0.0284 µM) and the MIC (Clostridioides difficile, isolate 107 6079, read-out: MIC) was 0.06 µg/mL (≈ 0.0567 µM). It also gave an MIC (Clostridioides difficile, isolate 111 6279, read-out: MIC) of 0.03 µg/mL (≈ 0.0284 µM), an MIC (Clostridioides difficile, isolate 112 6280, read-out: MIC) of 0.06 µg/mL (≈ 0.0567 µM) and an MIC (Clostridioides difficile, isolate 113 6304, read-out: MIC) of 0.06 µg/mL (≈ 0.0567 µM). For the same compound, the MIC (Clostridioides difficile, isolate 114 386, read-out: MIC) was 0.06 µg/mL (≈ 0.0567 µM), the MIC (Clostridioides difficile, isolate 116 5702, read-out: MIC) was 0.06 µg/mL (≈ 0.0567 µM) and the MIC (Clostridioides difficile, isolate 117 6026, read-out: MIC) was 0.06 µg/mL (≈ 0.0567 µM). For the same compound, the MIC (Clostridioides difficile, isolate 120 6057, read-out: MIC) was 0.03 µg/mL (≈ 0.0284 µM), the MIC (Clostridioides difficile, isolate 121 6072, read-out: MIC) was 0.06 µg/mL (≈ 0.0567 µM) and the MIC (Clostridioides difficile, isolate AB2 1725, read-out: MIC) was 0.06 µg/mL (≈ 0.0567 µM). It also gave an MIC (Clostridioides difficile, isolate AC1 1546, read-out: MIC) of 0.06 µg/mL (≈ 0.0567 µM), an MIC (Clostridioides difficile, isolate AJ1 1557, read-out: MIC) of 0.06 µg/mL (≈ 0.0567 µM) and an MIC (Clostridioides difficile, isolate AL1 1753, read-out: MIC) of 0.06 µg/mL (≈ 0.0567 µM). It also gave an MIC (Clostridioides difficile, isolate B1 832, read-out: MIC) of 0.06 µg/mL (≈ 0.0567 µM), an MIC (Clostridioides difficile, isolate BH1 4506, read-out: MIC) of 0.06 µg/mL (≈ 0.0567 µM) and an MIC (Clostridioides difficile, isolate BM1 1453, read-out: MIC) of 0.06 µg/mL (≈ 0.0567 µM). It also gave an MIC (Clostridioides difficile, isolate BR1 1321, read-out: MIC) of 0.06 µg/mL (≈ 0.0567 µM), an MIC (Clostridioides difficile, isolate BT1 706, read-out: MIC) of 0.06 µg/mL (≈ 0.0567 µM) and an MIC (Clostridioides difficile, isolate D1 1360, read-out: MIC) of 0.03 µg/mL (≈ 0.0284 µM). It also gave an MIC (Clostridioides difficile, isolate E1 816, read-out: MIC) of 0.06 µg/mL (≈ 0.0567 µM), an MIC (Clostridioides difficile, isolate J1 5971, read-out: MIC) of 0.06 µg/mL (≈ 0.0567 µM) and an MIC (Clostridioides difficile, isolate J7 4224, read-out: MIC) of 0.03 µg/mL (≈ 0.0284 µM). The MIC (Clostridioides difficile, isolate J9 4478, read-out: MIC) was 0.06 µg/mL (≈ 0.0567 µM), the MIC (Clostridioides difficile, isolate O1 1861, read-out: MIC) was 0.06 µg/mL (≈ 0.0567 µM) and the MIC (Clostridioides difficile, isolate Y1 5639, read-out: MIC) was 0.06 µg/mL (≈ 0.0567 µM). The MIC (Clostridioides difficile, isolate Y2 1459, read-out: MIC) was 0.06 µg/mL (≈ 0.0567 µM), the MIC (Clostridioides difficile, isolate Z1 3036, read-out: MIC) was 0.03 µg/mL (≈ 0.0284 µM) and the MIC (isolate 64 5940) was 0.125 µg/mL (≈ 0.118 µM). For the same compound, the MIC (isolate 67 6367) was 0.125 µg/mL (≈ 0.118 µM), the MIC (isolate 70 6376) was 0.125 µg/mL (≈ 0.118 µM) and the MIC (isolate 71 6379) was 0.125 µg/mL (≈ 0.118 µM). The MIC (isolate 72 6380) was 0.125 µg/mL (≈ 0.118 µM), the MIC (isolate 75 6388) was 0.125 µg/mL (≈ 0.118 µM) and the MIC (isolate 76 6389) was 0.125 µg/mL (≈ 0.118 µM). It also gave an MIC (isolate 80 6327) of 0.125 µg/mL (≈ 0.118 µM), an MIC (isolate 81 6328) of 0.125 µg/mL (≈ 0.118 µM) and an MIC (isolate 84 6331) of 0.125 µg/mL (≈ 0.118 µM). It also gave an MIC (isolate 87 6334) of 0.125 µg/mL (≈ 0.118 µM), an MIC (isolate 88 6335) of 0.125 µg/mL (≈ 0.118 µM) and an MIC (isolate 90 6338) of 0.125 µg/mL (≈ 0.118 µM). For the same compound, the MIC (isolate 91 6339) was 0.125 µg/mL (≈ 0.118 µM), the MIC (isolate 93 6341) was 0.125 µg/mL (≈ 0.118 µM) and the MIC (isolate 95 6347) was 0.125 µg/mL (≈ 0.118 µM). The MIC (isolate 98 6350) was 0.125 µg/mL (≈ 0.118 µM) and the MIC (isolate 100 6353) was 0.125 µg/mL (≈ 0.118 µM).
